Reference: ChEMBL document CHEMBL1201862, “PubChem BioAssay data set” (2004)
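Each compound was tested at five concentrations against cells in 96-well plates for 48 hours. GI50 marks 50% less growth.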 Activity calls are given as the source filed them. No stated cut-off is given here; in the data, active = GI50 up to about 1.1 µM and inactive = higher.

Key:
Experiment in all cases: DTP human tumour cell line panel, 48 h
NCI-H226 = test system: NCI-H226
SK-MEL-28 = test system: SK-MEL-28
MOLT-4 = test system: MOLT-4
A549 = test system: A549
HL-60 = test system: HL-60
KM12 = test system: KM12
MCF7 = test system: MCF7
MDA-MB-231 = test system: MDA-MB-231
HCT-116 = test system: HCT-116
UACC-62 = test system: UACC-62
TK-10 = test system: TK-10
COLO 205 = test system: COLO 205
LOX IMVI = test system: LOX IMVI
NCI-H23 = test system: NCI-H23
K562 = test system: K562
SN12C = test system: SN12C
OVCAR-3 = test system: OVCAR-3
Malme-3M = test system: Malme-3M
ACHN = test system: ACHN
Hs-578T = test system: Hs-578T
HOP-62 = test system: HOP-62
NCI/ADR-RES = test system: NCI/ADR-RES
DU-145 = test system: DU-145
SNB-19 = test system: SNB-19
OVCAR-4 = test system: OVCAR-4
SW-620 = test system: SW-620
SF-295 = test system: SF-295
PC-3 = test system: PC-3
SK-MEL-2 = test system: SK-MEL-2
786-0 = test system: 786-0
HCC 2998 = test system: HCC 2998
NCI-H460 = test system: NCI-H460
U-251 = test system: U-251
M14 = test system: M14
SF-268 = test system: SF-268
MDA-MB-435 = test system: MDA-MB-435
UO-31 = test system: UO-31
RXF 393 = test system: RXF 393
A498 = test system: A498
HCT-15 = test system: HCT-15
CCRF-CEM = test system: CCRF-CEM
EKVX = test system: EKVX
RPMI-8226 = test system: RPMI-8226
SK-OV-3 = test system: SK-OV-3
T47D = test system: T47D
CAKI-1 = test system: CAKI-1
UACC-257 = test system: UACC-257
OVCAR-5 = test system: OVCAR-5
NCI-H522 = test system: NCI-H522
SK-MEL-5 = test system: SK-MEL-5
HOP-92 = test system: HOP-92
HT-29 = test system: HT-29
IGROV-1 = test system: IGROV-1
BT-549 = test system: BT-549
OVCAR-8 = test system: OVCAR-8
SNB-75 = test system: SNB-75
SF-539 = test system: SF-539

CS(=O)(=O)Nc1ccc(Nc2ccnc3ccc4[nH]ccc4c23)cc1
GI50 (NCI-H226): 8.49 µM (inactive)
GI50 (SK-MEL-28): 15.8 µM (inactive)
GI50 (MOLT-4): 3.13 µM (inactive)
GI50 (A549): 19.5 µM (inactive)
GI50 (HL-60): 21.4 µM (inactive)
GI50 (KM12): 11.6 µM (inactive)
GI50 (MCF7): 4.89 µM (inactive)
GI50 (MDA-MB-231): 8.93 µM (inactive)
GI50 (HCT-116): 5.5 µM (inactive)
GI50 (UACC-62): 14.3 µM (inactive)
GI50 (TK-10): 30.2 µM (inactive)
GI50 (COLO 205): 9.1 µM (inactive)
GI50 (LOX IMVI): 9.12 µM (inactive)
GI50 (NCI-H23): 16.3 µM (inactive)
GI50 (K562): 6.64 µM (inactive)
GI50 (SN12C): 7.96 µM (inactive)
GI50 (OVCAR-3): 10.3 µM (inactive)
GI50 (Malme-3M): 3.88 µM (inactive)
GI50 (ACHN): 21.5 µM (inactive)
GI50 (Hs-578T): 21.8 µM (inactive)
GI50 (HOP-62): 13.9 µM (inactive)
GI50 (NCI/ADR-RES): > 100 µM (inactive)
GI50 (DU-145): 9.93 µM (inactive)
GI50 (SNB-19): 6.52 µM (inactive)
GI50 (OVCAR-4): 7.83 µM (inactive)
GI50 (SW-620): 8.32 µM (inactive)
GI50 (SF-295): 24.5 µM (inactive)
GI50 (PC-3): 12.4 µM (inactive)
GI50 (SK-MEL-2): 10.3 µM (inactive)
GI50 (786-0): 9.64 µM (inactive)
GI50 (HCC 2998): 4.98 µM (inactive)
GI50 (NCI-H460): 15.2 µM (inactive)
GI50 (U-251): 9.93 µM (inactive)
GI50 (M14): 16.1 µM (inactive)
GI50 (SF-268): 5.13 µM (inactive)
GI50 (MDA-MB-435): 15.1 µM (inactive)
GI50 (UO-31): 29.7 µM (inactive)
GI50 (RXF 393): 14 µM (inactive)
GI50 (A498): 18.5 µM (inactive)
GI50 (HCT-15): 46 µM
GI50 (CCRF-CEM): 4.35 µM (inactive)
GI50 (EKVX): 24.8 µM (inactive)
GI50 (RPMI-8226): 21 µM (inactive)
GI50 (SK-OV-3): 19.5 µM (inactive)
GI50 (T47D): 3.77 µM (inactive)
GI50 (CAKI-1): 27.7 µM (inactive)
GI50 (UACC-257): 15.6 µM (inactive)
GI50 (OVCAR-5): 26.3 µM (inactive)
GI50 (NCI-H522): 6.4 µM (inactive)
GI50 (SK-MEL-5): 11.7 µM (inactive)
GI50 (HOP-92): 8.36 µM (inactive)
GI50 (HT-29): 18.4 µM (inactive)
GI50 (IGROV-1): 20 µM (inactive)
GI50 (BT-549): 19.7 µM (inactive)
GI50 (OVCAR-8): 7.96 µM (inactive)

CC(C)(C)n1nc(C2CC2)cc1NC(=O)Nc1ccc(Cl)cc1
GI50 (SNB-75): 78 µM (inactive)
GI50 (NCI-H226): > 100 µM (inactive)
GI50 (SK-MEL-28): > 100 µM (inactive)
GI50 (MOLT-4): > 100 µM (inactive)
GI50 (A549): > 100 µM (inactive)
GI50 (HL-60): > 100 µM (inactive)
GI50 (KM12): > 100 µM (inactive)
GI50 (MCF7): > 100 µM (inactive)
GI50 (MDA-MB-231): > 100 µM (inactive)
GI50 (HCT-116): > 100 µM (inactive)
GI50 (UACC-62): > 100 µM (inactive)
GI50 (TK-10): > 100 µM (inactive)
GI50 (COLO 205): > 100 µM (inactive)
GI50 (LOX IMVI): > 100 µM (inactive)
GI50 (NCI-H23): > 100 µM (inactive)
GI50 (K562): > 100 µM (inactive)
GI50 (SN12C): > 100 µM (inactive)
GI50 (SF-539): > 100 µM (inactive)
GI50 (OVCAR-3): > 100 µM (inactive)
GI50 (Malme-3M): > 100 µM (inactive)
GI50 (ACHN): > 100 µM (inactive)
GI50 (Hs-578T): > 100 µM (inactive)
GI50 (HOP-62): > 100 µM (inactive)
GI50 (NCI/ADR-RES): > 100 µM (inactive)
GI50 (DU-145): > 100 µM (inactive)
GI50 (SNB-19): > 100 µM (inactive)
GI50 (OVCAR-4): > 100 µM (inactive)
GI50 (SW-620): > 100 µM (inactive)
GI50 (SF-295): > 100 µM (inactive)
GI50 (PC-3): > 100 µM (inactive)
GI50 (SK-MEL-2): > 100 µM (inactive)
GI50 (786-0): > 100 µM (inactive)
GI50 (HCC 2998): > 100 µM (inactive)
GI50 (NCI-H460): > 100 µM (inactive)
GI50 (U-251): > 100 µM (inactive)
GI50 (M14): > 100 µM (inactive)
GI50 (SF-268): > 100 µM (inactive)
GI50 (MDA-MB-435): > 100 µM (inactive)
GI50 (UO-31): > 100 µM (inactive)
GI50 (RXF 393): > 100 µM (inactive)
GI50 (A498): > 100 µM (inactive)
GI50 (HCT-15): > 100 µM
GI50 (EKVX): > 100 µM (inactive)
GI50 (RPMI-8226): > 100 µM (inactive)
GI50 (SK-OV-3): > 100 µM (inactive)
GI50 (T47D): > 100 µM (inactive)
GI50 (CAKI-1): > 100 µM (inactive)
GI50 (UACC-257): > 100 µM (inactive)
GI50 (OVCAR-5): > 100 µM (inactive)
GI50 (NCI-H522): > 100 µM (inactive)
GI50 (SK-MEL-5): > 100 µM (inactive)
GI50 (HOP-92): > 100 µM (inactive)
GI50 (HT-29): > 100 µM (inactive)
GI50 (IGROV-1): > 100 µM (inactive)
GI50 (BT-549): > 100 µM (inactive)
GI50 (OVCAR-8): > 100 µM (inactive)

CNC(C)C(O)c1ccc2oc3cc(=O)c4ccccc4c-3nc2c1 (stereo not given)
GI50 (SK-MEL-28): 11.5 µM (inactive)
GI50 (MOLT-4): 19.4 µM (inactive)
GI50 (A549): 5.13 µM (inactive)
GI50 (HL-60): 21.8 µM (inactive)
GI50 (KM12): 9.84 µM (inactive)
GI50 (MCF7): 18.9 µM (inactive)
GI50 (MDA-MB-231): 45.5 µM (inactive)
GI50 (HCT-116): 5.24 µM (inactive)
GI50 (UACC-62): 3.82 µM (inactive)
GI50 (TK-10): 38.7 µM (inactive)
GI50 (COLO 205): 35.9 µM (inactive)
GI50 (LOX IMVI): 4.1 µM (inactive)
GI50 (NCI-H23): 4.3 µM (inactive)
GI50 (K562): 2.72 µM (inactive)
GI50 (SN12C): 10.6 µM (inactive)
GI50 (SF-539): 1.45 µM (inactive)
GI50 (OVCAR-3): 11.9 µM (inactive)
GI50 (Malme-3M): 5.64 µM (inactive)
GI50 (ACHN): 6.25 µM (inactive)
GI50 (Hs-578T): 2.26 µM (inactive)
GI50 (HOP-62): 5.82 µM (inactive)
GI50 (NCI/ADR-RES): 14.4 µM (inactive)
GI50 (DU-145): 5.31 µM (inactive)
GI50 (SNB-19): 6.44 µM (inactive)
GI50 (OVCAR-4): 17.3 µM (inactive)
GI50 (SW-620): 6.35 µM (inactive)
GI50 (SF-295): 4.59 µM (inactive)
GI50 (PC-3): 32.6 µM (inactive)
GI50 (SK-MEL-2): 4.69 µM (inactive)
GI50 (HCC 2998): 27.9 µM (inactive)
GI50 (NCI-H460): 4.67 µM (inactive)
GI50 (U-251): 4.34 µM (inactive)
GI50 (M14): 4.65 µM (inactive)
GI50 (SF-268): 27.2 µM (inactive)
GI50 (MDA-MB-435): 1.97 µM (inactive)
GI50 (UO-31): 13.8 µM (inactive)
GI50 (RXF 393): 25.8 µM (inactive)
GI50 (A498): 24 µM (inactive)
GI50 (HCT-15): 4.83 µM
GI50 (CCRF-CEM): 5.52 µM (inactive)
GI50 (EKVX): 40 µM (inactive)
GI50 (RPMI-8226): 18.9 µM (inactive)
GI50 (SK-OV-3): 40.1 µM (inactive)
GI50 (T47D): 31.6 µM (inactive)
GI50 (CAKI-1): 16.1 µM (inactive)
GI50 (UACC-257): 5.37 µM (inactive)
GI50 (OVCAR-5): 32.5 µM (inactive)
GI50 (NCI-H522): 13.3 µM (inactive)
GI50 (SK-MEL-5): 2.48 µM (inactive)
GI50 (HOP-92): 94.6 µM (inactive)
GI50 (HT-29): 36.3 µM (inactive)
GI50 (IGROV-1): 31.5 µM (inactive)
GI50 (BT-549): 7.76 µM (inactive)
GI50 (OVCAR-8): 6.15 µM (inactive)
